The numbers were not newly measured in patent publication US20040138299A1, “Solid pharmaceutical composition comprising 4-cyano-trifluoro-3(4-fluorophenyl-sulphonyl)-2hydroxy-methylpropiono-m toluidide and pvp” (priority 2001, published 2004), which cites them from elsewhere.

Structures are written as SMILES.

For the data set the following is noted: conventional tablet doses above 300 mg.

Take `CC(O)(CS(=O)(=O)c1ccc(F)cc1)C(=O)Nc1ccc(C#N)c(C(F)(F)F)c1` (stereo not drawn) [bicalutamide, 4′-cyano-α′,α′,α′-trifluoro-3-(4-fluorophenylsulphonyl)-2-hydroxy-2-methylpropiono-m-toluidide]: the “systemic exposure at high dose” value is recorded as “no further significant increase in systemic exposure”.
